The source made the active and inactive calls. The rule behind the calls is not given here.

In experiment [1] the test system is Mus musculus. The experiment can be described thus: Plasma triglyceride lowering activity in swiss albino mice was determined after 3 mg/kg compound administered for 6 days. In kind it is functional.
The subject of experiment [2] is Mus musculus. The experiment can be described thus: Plasma triglyceride lowering activity in swiss albino mice was determined after 3 mg/kg compound administered for 6 days; Not effective. Further details: dose 3 mg/kg. In kind it is functional, organism-based.
In experiment [3] the test system is Mus musculus. The experiment can be described thus: Plasma triglyceride lowering activity in swiss albino mice was determined after 30 mg/kg compound administered for 6 days. In kind it is functional.

Compound `CCOc1cc2ccc(OCCn3c(CC)nc(C)cc3=O)cc2oc1=O` displayed an Activity in experiment [1] of 26%.
On to `CCOc1cc2ccc(OC(C)(C)C(=O)O)cc2oc1=O`, for which, in experiment [1], the Activity is given as 16%.
Turning to `CCOc1cc2ccc(OCCn3ncc4cc(C)ccc4c3=O)cc2oc1=O`, in experiment [2], the result was inactive.
Still for that read-out and setting: in the case of `O=C(O)c1cc2ccc(OCCn3ncc4ccccc4c3=O)cc2oc1=O` it was “inactive”.
Same read-out and setting: to `CCOc1cc2ccc(OCCN3c4ccccc4Oc4ccccc43)cc2oc1=O` belongs “inactive”; to `CCOc1cc2ccc(OCCN(C)c3nc4ccccc4o3)cc2oc1=O`, “inactive”.
For `CC(C)OC(=O)C(C)(C)Oc1ccc(C(=O)c2ccc(Cl)cc2)cc1` [FENOFIBRATE], the Activity in experiment [3] is 36%.
For the compound `CCOc1cc2ccc(OCCn3ccc4ccccc43)cc2oc1=O`, the Activity in experiment [1] came to 27%.
As to `CC(=O)Nc1cc2ccc(OCCN(C)c3nc4ccccc4o3)cc2oc1=O`, the outcome in experiment [2] was inactive.
On the same count and under the same terms, to `CCOc1cc2ccc(OCCn3c(CC)nc4ccccc4c3=O)cc2oc1=O` belongs “inactive”.
In experiment [1], `CCOc1cc2ccc(OCCc3nc(-c4ccccc4)oc3C)cc2oc1=O` registered an Activity of 31%.
`Cc1oc(-c2ccccc2)nc1CCOc1ccc2cc(C(=O)O)c(=O)oc2c1` yielded an Activity in experiment [1] of 32%.
The same measure, in the same setting: to `CCOC(Cc1ccc(OCCN2c3ccccc3Oc3ccccc32)cc1)C(=O)O` (configuration not stated) belongs 47%.
With `CCOC(=O)c1cc2ccc(OCCc3nc(-c4ccccc4)oc3C)cc2oc1=O`, in experiment [1], the Activity amounted to 2%.
With `CCOc1cc2ccc(OCCn3ncc4ccccc4c3=O)cc2oc1=O`, in experiment [1], the Activity is given as 45%.
The same measure, in the same setting: in the case of `CCOc1cc2ccc(OCc3ccccc3F)cc2oc1=O` it was 25%; in that of `CC(=O)Nc1cc2ccc(OCCc3nc(-c4ccccc4)oc3C)cc2oc1=O`, 2%.

Source of the values: ChEMBL document CHEMBL1136134, “Novel coumarin derivatives of heterocyclic compounds as lipid-lowering agents” (2003).
